# Experimental data from PubChem BioAssay AID330 (DTP/NCI, 2004).
# Values joined by “and” are separate entries in the source; they are usually repeats but may differ in a detail not shown here. Equal entries are not always repeated. Inconclusive results and toxic doses are left out.
# Test system: P388 leukemia ip, CD2F1 mice, survival T/C
# Assay: NCI In Vivo Anticancer Drug Screen. Data for tumor model P388 Leukemia (intraperitoneal) in CD2F1 (CDF1) mice
# Settings: endpoint: median survival time, higher = longer survival
# Outline: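 Mice carrying the transplanted tumor received test compound or vehicle. Survival was recorded in each group, and the value is the treated-group measurement divided by that of the vehicle-treated control group.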
# [1] = dose: 60.0 mg/kg/injection, schedule: Q01DX005 (ip), vehicle: Klucel (hydroxypropylcellulose) (HPC)
# [2] = dose: 120.0 mg/kg/injection, schedule: Q01DX005 (ip), vehicle: Klucel (hydroxypropylcellulose) (HPC)
# [3] = dose: 25.0 mg/kg/injection, schedule: Q01DX009 (ip), vehicle: saline with Tween-80
# [4] = dose: 50.0 mg/kg/injection, schedule: Q01DX009 (ip), vehicle: saline with Tween-80
compound,measurement,setting,value
CNC(=O)SC1=NS(=O)(=O)c2ccc(Cl)cc2N1,T/C,[1],110 % of control
same,T/C,[2],107 % of control
CC1(C)N=C(N)N=C(N)N1c1ccc(Cl)cc1Cl,T/C,"dose: 12.0 mg/kg/injection, schedule: Q01DX005 (ip), vehicle: saline",102 % of control
same,T/C,"dose: 25.0 mg/kg/injection, schedule: Q01DX005 (ip), vehicle: saline",100 % of control
same,T/C,"dose: 50.0 mg/kg/injection, schedule: Q01DX005 (ip), vehicle: saline",104 % of control and 98 % of control
NC(=S)/C(N)=N/Nc1ccc(Cl)cc1,T/C,"dose: 6.25 mg/kg/injection, schedule: Q01DX009 (ip), vehicle: saline with Tween-80",104 % of control
same,T/C,"dose: 12.5 mg/kg/injection, schedule: Q01DX009 (ip), vehicle: saline with Tween-80",103 % of control
same,T/C,[3],106 % of control
same,T/C,[4],116 % of control
CN(C)c1ccc(N=Nc2ccccc2)cc1,T/C,"dose: 31.25 mg/kg/injection, schedule: Q01DX009 (ip), vehicle: saline with Tween-80",100 % of control
same,T/C,"dose: 62.5 mg/kg/injection, schedule: Q01DX009 (ip), vehicle: saline with Tween-80",109 % of control
CCC1(CC(=O)O)OCCc2c1[nH]c1c(C)c(F)ccc21 (configuration not stated),T/C,"dose: 50.0 mg/kg/injection, schedule: Q01DX009 (ip), vehicle: Klucel (hydroxypropylcellulose) (HPC)",95 % of control
same,T/C,"dose: 100.0 mg/kg/injection, schedule: Q01DX009 (ip), vehicle: Klucel (hydroxypropylcellulose) (HPC)",96 % of control
same,T/C,"dose: 200.0 mg/kg/injection, schedule: Q01DX009 (ip), vehicle: Klucel (hydroxypropylcellulose) (HPC)",104 % of control
COc1ccc2c(c1O)-c1cc(O)cc3c1[C@@H](C2)N(C)CC3,T/C,"dose: 50.0 mg/kg/injection, schedule: Q01DX005 (ip), vehicle: saline with Tween-80",104 % of control
same,T/C,"dose: 100.0 mg/kg/injection, schedule: Q01DX005 (ip), vehicle: saline with Tween-80",104 % of control
CC(C)=CCc1c(O)ccc(C(=O)[C@H]2C(c3ccc(O)cc3O)CC(C)=C[C@@H]2c2c(O)cc(O)c3c(=O)c(CC=C(C)C)c(-c4ccc(O)cc4O)oc23)c1O (some centres not stated),T/C,"dose: 7.5 mg/kg/injection, schedule: Q01DX005 (ip), vehicle: Klucel (hydroxypropylcellulose) (HPC)",92 % of control
same,T/C,"dose: 15.0 mg/kg/injection, schedule: Q01DX005 (ip), vehicle: Klucel (hydroxypropylcellulose) (HPC)",97 % of control
same,T/C,"dose: 30.0 mg/kg/injection, schedule: Q01DX005 (ip), vehicle: Klucel (hydroxypropylcellulose) (HPC)",93 % of control
same,T/C,[1],108 % of control
same,T/C,[2],92 % of control
Cc1nc2nc3n(c(=O)c2nc1C)CCS3,T/C,"dose: 100.0 mg/kg/injection, schedule: Q01DX001 (ip), vehicle: saline",103 % of control
same,T/C,"dose: 200.0 mg/kg/injection, schedule: Q01DX001 (ip), vehicle: saline",108 % of control
same,T/C,"dose: 400.0 mg/kg/injection, schedule: Q01DX001 (ip), vehicle: saline",102 % of control
O=C(CBr)N1c2ccccc2Sc2ccc3ccccc3c21,T/C,[3],110 % of control and 120 % of control
same,T/C,[4],122 % of control
C=CCC12CC(O)C(O)CC1(O)OC(c1cc(OC)c(OC)c(OC)c1)C2C (configuration not stated),T/C,"dose: 1.25 mg/kg/injection, schedule: Q01DX005 (ip), vehicle: acid diluted with saline",115 % of control
same,T/C,"dose: 2.5 mg/kg/injection, schedule: Q01DX005 (ip), vehicle: acid diluted with saline",102 % of control
same,T/C,"dose: 5.0 mg/kg/injection, schedule: Q01DX005 (ip), vehicle: acid diluted with saline",100 % of control
same,T/C,"dose: 10.0 mg/kg/injection, schedule: Q01DX005 (ip), vehicle: acid diluted with saline",93 % of control
O=C(NNC1CCN(Cc2ccccc2)CC1)c1ccccc1,T/C,"dose: 10.0 mg/kg/injection, schedule: Q04DX003 (ip), vehicle: saline with Tween-80",100 % of control
same,T/C,"dose: 20.0 mg/kg/injection, schedule: Q04DX003 (ip), vehicle: saline with Tween-80",95 % of control
O=c1ccc(=O)c2c(=O)c3cc4[nH]c5ccccc5[nH]c4cc3c(=O)c12,T/C,[3],94 % of control
same,T/C,[4],92 % of control
same,T/C,"dose: 100.0 mg/kg/injection, schedule: Q01DX009 (ip), vehicle: saline with Tween-80",88 % of control
O=C(O)C(CS(=O)(=O)O)Nc1ncnc2nc[nH]c12 (configuration not stated),T/C,"dose: 100.0 mg/kg/injection, schedule: Q01DX009 (ip), vehicle: saline",100 % of control
same,T/C,"dose: 200.0 mg/kg/injection, schedule: Q01DX009 (ip), vehicle: saline",100 % of control
same,T/C,"dose: 400.0 mg/kg/injection, schedule: Q01DX009 (ip), vehicle: saline",109 % of control
CC(C)(C)NC=C(C#N)C#N,T/C,[4],86 % of control
O=Cc1cc(/C=N/Nc2ccc([N+](=O)[O-])cc2[N+](=O)[O-])nc2[nH]c(=O)ccc12,T/C,"dose: 100.0 mg/kg/injection, schedule: Q04DX002 (ip), vehicle: saline with Tween-80",97 % of control
same,T/C,"dose: 200.0 mg/kg/injection, schedule: Q04DX002 (ip), vehicle: saline with Tween-80",104 % of control
same,T/C,"dose: 400.0 mg/kg/injection, schedule: Q04DX002 (ip), vehicle: saline with Tween-80",95 % of control
